Assay results as given in ChEMBL document CHEMBL1201862, “PubChem BioAssay data set” (2004).
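Growth conditions: 96-well plates. Treatment: test compound, 48 hours, 5 concentrations. Analysis: linear interpolation between bracketing concentrations; unreached endpoints set to highest concentration. The concentration for 50% growth inhibition is given as GI50.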 Calls of active or inactive are those of the source. No stated cut-off is given here; in the data, active = GI50 up to about 1.1 µM and inactive = higher.

Experiments:
Experiment in all cases: NCI anticancer screen, dose series, 48 h
[1] = system: M14
[2] = system: Hs-578T
[3] = system: SW-620
[4] = system: OVCAR-5
[5] = system: COLO 205
[6] = system: SK-MEL-28
[7] = system: SNB-19
[8] = system: RPMI-8226
[9] = system: KM12
[10] = system: A498
[11] = system: HL-60
[12] = system: NCI/ADR-RES
[13] = system: SF-268
[14] = system: IGROV-1
[15] = system: MDA-N
[16] = system: SF-295
[17] = system: UACC-257
[18] = system: U-251
[19] = system: SR
[20] = system: SK-OV-3

Compound | GI50 [1] | GI50 [2] | GI50 [3] | GI50 [4] | GI50 [5] | GI50 [6] | GI50 [7] | GI50 [8] | GI50 [9] | GI50 [10] | GI50 [11] | GI50 [12] | GI50 [13] | GI50 [14] | GI50 [15] | GI50 [16] | GI50 [17] | GI50 [18] | GI50 [19] | GI50 [20]
Nc1c2c(nc3ccccc13)CCCc1ccccc1-2 | 7.91 µM (inactive) | 22.6 µM (inactive) | 5.94 µM (inactive) | 12.4 µM (inactive) | 8.32 µM (inactive) | 9.75 µM (inactive) | 11.3 µM (inactive) | 5.32 µM (inactive) | 13.1 µM (inactive) | 8.43 µM (inactive) | 5.9 µM (inactive) | 20.3 µM (inactive) | 16.9 µM (inactive) | 9.46 µM (inactive) | 4.17 µM (inactive) | 7.23 µM (inactive) | 12.7 µM (inactive) | 11.3 µM (inactive) | 7.35 µM (inactive) | 33.5 µM (inactive)
CS[C@]12C(=O)C[C@@]3(C)[C@@H](CC[C@]3(O)C(=O)CO)[C@@H]1CCC1=CC(=O)CC[C@@]12C | 46 µM (inactive) | > 100 µM (inactive) | 68.5 µM (inactive) | > 100 µM (inactive) | > 100 µM (inactive) | > 100 µM (inactive) | > 100 µM (inactive) | 30.1 µM (inactive) | > 100 µM (inactive) | > 100 µM (inactive) | 35.3 µM (inactive) | > 100 µM (inactive) | > 100 µM (inactive) | > 100 µM (inactive) | 26.6 µM (inactive) | > 100 µM (inactive) | > 100 µM (inactive) | > 100 µM (inactive) | 35 µM (inactive) | > 100 µM (inactive)
CC1=C(C)C(=O)C(C2=C(C3=CC(=O)C(C)=C(C)C3=O)C(=O)c3ccccc3C2=O)=CC1=O | 1.82 µM (inactive) | 5.93 µM (inactive) | 1.82 µM (inactive) | 13 µM (inactive) | 0.863 µM (active) | 2.3 µM (inactive) | 11.2 µM (inactive) | 1.3 µM (inactive) | 3.33 µM (inactive) | 8.04 µM (inactive) | 0.255 µM (active) | 10.4 µM (inactive) | 3.26 µM (inactive) | 2.48 µM (inactive) | 1.91 µM (inactive) | 12.1 µM (inactive) | 1.99 µM (inactive) | 3.62 µM (inactive) | 1.47 µM (inactive) | 16.5 µM (inactive)
NN | 468 µM (inactive) | 809 µM (inactive) | 235 µM (inactive) | 514 µM (inactive) | 328 µM (inactive) | 585 µM (inactive) | 887 µM (inactive) | 303 µM (inactive) | 480 µM (inactive) | 317 µM (inactive) | 205 µM (inactive) | 740 µM (inactive) | 561 µM (inactive) | 357 µM (inactive) | 150 µM (inactive) | 574 µM (inactive) | 851 µM (inactive) | 410 µM (inactive) | 100 µM (inactive) | 1240 µM (inactive)
CCOC(=O)c1nc2cc(F)cc(F)c2[nH]c1=O | > 100 µM (inactive) | > 100 µM (inactive) | > 100 µM (inactive) | > 100 µM (inactive) | > 100 µM (inactive) | > 100 µM (inactive) | > 100 µM (inactive) | > 100 µM (inactive) | > 100 µM (inactive) | > 100 µM (inactive) | > 100 µM (inactive) | > 100 µM (inactive) | > 100 µM (inactive) | > 100 µM (inactive) | > 100 µM (inactive) | > 100 µM (inactive) | > 100 µM (inactive) | > 100 µM (inactive) | > 100 µM (inactive) | > 100 µM (inactive)
CCCC1NC(C#N)(C#N)C(CCC)NC1(C#N)C#N (stereo not given) | 0.126 µM (active) | 3.07 µM (inactive) | < 0.012 µM (active) | 24.7 µM (inactive) | < 0.01 µM (active) | 44.9 µM (inactive) | 40.9 µM (inactive) | < 0.01 µM (active) | 9.25 µM (inactive) | 21.7 µM (inactive) | < 0.0107 µM (active) | 0.243 µM (active) | 1.31 µM (inactive) | 1.42 µM (inactive) | 0.285 µM (active) | 22.7 µM (inactive) | > 100 µM (inactive) | 6.46 µM (inactive) | < 0.0173 µM (active) | 35.9 µM (inactive)
CCO/C=N\C1=C(C#N)SC2=N/C(=C\c3ccc(OC)cc3)C(=O)N21 | > 100 µM (inactive) | 33.7 µM (inactive) | > 100 µM (inactive) | > 100 µM (inactive) | > 100 µM (inactive) | > 100 µM (inactive) | 83.6 µM (inactive) | > 100 µM (inactive) | > 100 µM (inactive) | > 100 µM (inactive) | 87.1 µM (inactive) | > 100 µM (inactive) | 45.4 µM (inactive) | 96.8 µM (inactive) | > 100 µM (inactive) | 59.3 µM (inactive) | > 100 µM (inactive) | 75.3 µM (inactive) | 82.8 µM (inactive) | 96.8 µM (inactive)
